pEC50: −log10 of the molar value. Read-outs that look alike come from different tables or passages of the source.

Data set [1] relates to rhinoviruses. Particulars: literature; interaction with proteins of the virus capsid; cited from earlier work.
For data set [2], the system named is rhinovirus serotype 14. Briefly: Protection of HeLa cells from rhinovirus-induced cytopathogenicity (MTT), serotype 14. Particulars: Enterovirus, 72 h, read-out: MIC, serotype 14. Background: Damage to the host cells serves as the signal in cytopathic effect assays.
Data set [3] relates to rhinovirus serotype 15. The data set can be described thus: Protection of HeLa cells from rhinovirus-induced cytopathogenicity (MTT), serotype 15. Particulars: Enterovirus, 72 h, read-out: MIC, serotype 15.
The subject of data set [4] is HRV-14. The data set can be described thus: Viral plaque reduction, HRV-14 on HeLa cells. The data set is classed as cell-based, human rhinovirus. Particulars: for pEC50: Rhinovirus B, HeLa cells, read-out: MIC, HRV-14; for S.I. (Selectivity Index): ratio MTL/MIC / S.I. (Selectivity Index): MTL/MIC ratio: HeLa MTL / HRV-14 MIC; for activity and selectivity to HRV-14 compared with the two previously known compounds: Table 1.

In data set [5] the test system is rhinovirus serotype 50. Briefly: Protection of HeLa cells from rhinovirus-induced cytopathogenicity (MTT), serotype 50. As to conditions: Enterovirus, 72 h, read-out: MIC, serotype 50.
Data set [6] concerns rhinovirus serotype 30. The data set can be described thus: Protection of HeLa cells from rhinovirus-induced cytopathogenicity (MTT), serotype 30. As to conditions: Enterovirus, 72 h, read-out: MIC, serotype 30.
Data set [7] relates to rhinovirus serotype 2. The data set can be described thus: Protection of HeLa cells from rhinovirus-induced cytopathogenicity (MTT), serotype 2. Particulars: Enterovirus, 72 h, read-out: MIC, serotype 2.
Data set [8] deals with different rhinoviruses serotypes. The data set can be described thus: Protection of HeLa cells from rhinovirus-induced cytopathogenicity (MTT), all serotypes of Table 3. As to conditions: for pEC50: Enterovirus, HeLa, 72 h, read-out: MIC, summary over the serotypes; for effectiveness and selectivity as rhinoviruses inhibiting agent / S.I.: Table 3; for S.I.: nine serotypes, HeLa cells.

Data set [9] concerns rhinovirus serotype 22. Briefly: Protection of HeLa cells from rhinovirus-induced cytopathogenicity (MTT), serotype 22. Particulars: Enterovirus, 72 h, read-out: MIC, serotype 22.
Data set [10] deals with rhinovirus serotype 89. The data set can be described thus: Protection of HeLa cells from rhinovirus-induced cytopathogenicity (MTT), serotype 89. Particulars: Enterovirus, 72 h, read-out: MIC, serotype 89.
The test system of data set [11] is rhinovirus serotype 86. Briefly: Protection of HeLa cells from rhinovirus-induced cytopathogenicity (MTT), serotype 86. Particulars: Enterovirus, 72 h, read-out: MIC, serotype 86.
The subject of data set [12] is rhinovirus serotype 21. Briefly: Protection of HeLa cells from rhinovirus-induced cytopathogenicity (MTT), serotype 21. Particulars: Enterovirus, 72 h, read-out: MIC, serotype 21.
The nature of data set [13]: in vitro. As to conditions: human, hela cells.
Data set [14] is described as follows: in vitro. Particulars: monkey, vero cells.
Data set [15] concerns HeLa cells.
The test system of data set [16] is Vesicular Stomatitis Virus (VSV). The data set can be described thus: microbe, parasite or virus in culture. The data set is classed as cell-based. Particulars: Vero, read-out: MIC, VSV.
Data set [17] has as its system Coxsackie Virus B1 (Coxs). Briefly: Viral plaque reduction, Coxs on Vero cells. In kind it is cell-based. Particulars: Table 1, 50% plaque reduction, 37° C, read-out: MIC, Coxs.
Data set [18] relates to Virus Vaccinicum (VV). Briefly: Viral plaque reduction, VV on Vero cells. As to conditions: Table 1, 50% plaque reduction, 37° C, read-out: MIC, VV. The data set is classed as cell-based.
Data set [19] has as its system Poliomyelitis Virus type 1 (Sb-1). The data set can be described thus: microbe, parasite or virus in culture. In kind it is cell-based. Particulars: Vero, read-out: MIC, Sb-1.
Data set [20] has as its system Herpes Simplex Virus type 1 (HSV-1). Briefly: Viral plaque reduction, HSV-1 on Vero cells. In kind it is cell-based. Particulars: Human alphaherpesvirus 1, Vero, read-out: MIC, HSV-1.
Data set [21] concerns HRV-14. As to conditions: Table 1; literature value; read-out: MIC, HRV-14 (comparison compounds); cited from earlier work.
Setting [22] is: Table 2, 50% reduction of HRV14 plaques.
The mark [23] stands for this setting: HRV14, Table 1 and text, 50% plaque reduction, 33° C.

For `CCCCCCCCCCCCCCOc1ccc(C(C)=O)o1` [RMI-15,731, 1-[5-(tetradecyloxy)-2-furanyl]ethanone], the inhibition of rhinoviruses entry in [1] is reported as “inhibit a wide range of rhinoviruses”.

On to `CCOC(=O)c1ccc(OCCCCC(=O)c2ccc(C)s2)cc1` [Compound 514], for which the pEC50 in [2] was 5.77; in data set [3], 6.05; in data set [4] (setting [22]), 5.47; in data set [5], 6.40; in data set [6], 6.85; in [7], 6.30. Moreover, the pEC50 in data set [8] was 6.20; in [9] it was 5.85; in [10], 6.52; in data set [11], 6.85; in data set [12], 7.00. In [4] (Table 2), the “S.I. (Selectivity Index): ratio MTL/MIC” value is more than 170. Moreover, the “effectiveness and selectivity as rhinoviruses inhibiting agent” value in data set [8] is “the most effective and selective”. In data set [8], this compound returned a S.I. of more than 917. This compound registered an MNTC in data set [13] of more than 578 µM.

Take `Cc1csc(C(=O)CCCCOc2ccc(C3=NCCO3)cc2)c1` [Compound 529, 2-[5-[4-(4,5-Dihydro-2-oxazolyl)phenoxy]pentanoyl]-4-methylthiophene]: the pEC50 in [2] is 5.96; in data set [3], 6.70; in data set [4] (setting [22]), 5.16; in data set [5] it was 5.37; in data set [6] it was 5.24; in [7], 5.54. Also, the pEC50 is 5.39 in [8]; 4.94 in [9]; 5.54 in data set [10]; 6.05 in [11]; 5.24 in [12]. Further, in data set [4] (Table 2), the “S.I. (Selectivity Index): ratio MTL/MIC” value was 42. In data set [8], the S.I. turned out to be 71. The compound further showed an MNTC in [13] of 291 µM.

Regarding `Cn1cccc1C(=O)CCCCOc1ccc(C2=NCCO2)cc1` [Compound 414], the MNTC in data set [14] was more than 300 µM; in data set [13], more than 610 µM. The cytotoxicity levels entry in data set [15] is “low cytotoxicity levels”. The pEC50 in data set [16] is less than 3.52; in data set [4] (setting [23]) it was 6.10; in [17], less than 3.52; in data set [18], less than 3.52; in data set [19], less than 3.52; in data set [20], less than 3.52. In addition, the “S.I. (Selectivity Index): MTL/MIC ratio” value in data set [4] (Table 1 and text) is given as more than 762.

With `CCOC(=O)c1ccc(OCCCCC(=O)c2cc(C=O)n(C)c2)cc1` [Compound 393, 4-[5-[4-(ethoxycarbonyl)phenoxy]pentanoyl]-1-methyl-1H-pyrrole-, -2-carboxaldeide], the pEC50 in [2] is 5.70; in data set [3], 5.66; in data set [4] (setting [22]), 5.85; in data set [5], 6.10; in [6], 5.96; in data set [7] it was 6.30. The pEC50 is 5.85 in data set [8]; 5.96 in data set [9]; 6.70 in [10]; 6.85 in data set [11]; 5.66 in data set [12]. Moreover, the “S.I. (Selectivity Index): ratio MTL/MIC” value in [4] (Table 2) turned out to be 36. In data set [8], this compound came in with a S.I. of 36. Further, in data set [13], the MNTC worked out at 50 µM.

`Cn1cc(C(=O)CCCCOc2ccc(C(=O)O)cc2)cc1C=O` [Compound 394]: the values for the MNTC in [14] and in data set [13] were 380 µM and more than 610 µM, respectively. The pEC50 was less than 3.42 in [16]; 5.15 in data set [4] (setting [23]); less than 3.42 in data set [17]; less than 3.42 in data set [18]; less than 3.42 in [19]; less than 3.42 in [20]. In addition, in data set [4], the “activity and selectivity to HRV-14 compared with the two previously known compounds” value is “less effective, but even more selective to HRV-14”. Also, in data set [4] (Table 1 and text), the “S.I. (Selectivity Index): MTL/MIC ratio” value is more than 87.

For the compound `Cc1cc(CCCCCCCOc2ccc(C3=NCCO3)cc2)on1` [WIN 51711, 5-{7-[4-(4,5-dihydro-2-oxazolyl)phenoxy]heptyl}-3-methyl-isoxazole, reference compound], the pEC50 in data set [2] was 6.22; in data set [3] it was 6.52; in data set [5], 5.70; in data set [21], 6.40; in [6] it was 5.77; in data set [7], 5.77. For the same compound, the pEC50 is 5.92 in [8]; 5.46 in data set [9]; 6.05 in [10]; 7.22 in data set [11]; 6.22 in data set [12]. Besides, the “S.I. (Selectivity Index): MTL/MIC ratio” value in data set [4] (Table 1 and text) is reported as 45. Also, the “S.I. (Selectivity Index): ratio MTL/MIC” value in data set [4] (Table 2) came to 45. In data set [8], this compound had a S.I. of 23. In data set [1], the inhibition of rhinoviruses entry is on record as “inhibit a wide range of rhinoviruses”.

`O=C(CCCCOc1ccc(C2=NCCO2)cc1)c1ccc(Cl)s1` [Compound 366]: the figures for the MNTC in data set [14] and in data set [13] were more than 275 µM and more than 410 µM, respectively. In addition, the cytotoxicity levels entry in [15] is on record as “low cytotoxicity levels”. Further, the pEC50 was less than 3.56 in [16]; 7.30 in [4] (setting [23]); less than 3.56 in [17]; less than 3.56 in [18]; 3.70 in data set [19]; less than 3.56 in data set [20].

With `CCOC(=O)c1ccc(OCCCCC(=O)c2ccc(Cl)s2)cc1` [Compound 360], the figures for the MNTC in [14] and in data set [13] were more than 190 µM and more than 545 µM, respectively. Moreover, the cytotoxicity levels result in data set [15] was “low cytotoxicity levels”. Further, the pEC50 in data set [16] is less than 3.72; in [2], 5.57; in data set [3] it was 5.80; in [4] (setting [23]) it was 5.70; in data set [5], 6.40; in [17], less than 3.72. The pEC50 was 7.30 in [6]; 7.00 in [7]; 6.12 in data set [8]; 5.85 in data set [9]; less than 3.72 in [18]; 6.52 in [10]. The pEC50 in data set [11] is 6.52; in data set [19] it was 4.10; in data set [20], less than 3.72. The “S.I. (Selectivity Index): MTL/MIC ratio” value in [4] (Table 1 and text) was more than 272. Further, in [8], the “effectiveness and selectivity as rhinoviruses inhibiting agent” value was “the most effective and selective”. Also, the S.I. in [8] is given as more than 717.

With `Cc1ccc(C(=O)CCCCOc2ccc(C3=NCCO3)cc2)s1` [Compound 522], the pEC50 in data set [2] was 6.52; in data set [3] it was 6.52; in [4] (setting [22]), 5.54; in data set [5] it was 5.96; in [6] it was 5.85; in data set [7], 5.96. Besides, the pEC50 was 5.70 in data set [8]; 4.94 in data set [9]; 6.52 in data set [10]; 6.85 in data set [11]; 5.77 in [12]. The “S.I. (Selectivity Index): ratio MTL/MIC” value in data set [4] (Table 2) is on record as more than 100. Also, the S.I. in data set [8] is recorded as more than 145. The MNTC in data set [13] was more than 291 µM.

As for `Cn1cc(C(=O)CCCCOc2ccc(C3=NCCO3)cc2)cc1C=O` [Compound 395], the values for the MNTC in data set [14] and in data set [13] were more than 280 µM and more than 425 µM, respectively. Moreover, the pEC50 was less than 3.55 in data set [16]; 5.30 in data set [4] (setting [23]); less than 3.55 in [17]; less than 3.55 in data set [18]; less than 3.55 in data set [19]; less than 3.55 in data set [20]. Further, the “activity and selectivity to HRV-14 compared with the two previously known compounds” value in data set [4] was “less effective, but even more selective to HRV-14”. The “S.I. (Selectivity Index): MTL/MIC ratio” value in data set [4] (Table 1 and text) is recorded as more than 85.

As to “4-ethoxy-2'-hydroxy-4', 6-dimethoxychalcone [RO 09-0410]”, the inhibition of rhinoviruses result in data set [1] was “inhibit a wide range of rhinoviruses”.

Source of the values: US5278184A, “Synthetic derivatives of pyrrole and pyrrolidine suitable for the therapy of infections caused by rhinoviruses” (Repla Chemical Ltd., priority 1991, dated 1994).
